Test: storage stability test of eye drop in resin container (content by HPLC)
Assay type: physicochemical
From the text: The content of the present prostaglandin derivative refers to the ratio (%) of the concentration of the present prostaglandin derivative existing in the aqueous liquid preparation after a predetermined period of time to the original concentration of the present prostaglandin derivative existing in the aqueous liquid preparation when the prostaglandin-containing product is produced throughout the claims and the specification. For example, in the case where the present prostaglandin derivative is dissolved in water, it refers to the ratio (%) of the concentration of the present prostaglandin derivative existing in the aqueous solution after a predetermined period of time to the concentration of the present prostaglandin derivative dissolved in water.
A 5-ml eye drop resin container was obtained by injection blow molding of a propylene/ethylene random copolymer (containing an ethylene component in an amount of 3%).
The resin container obtained in the section of “2. Production of Resin Container” was subjected to a sterilization treatment with ethylene oxide gas (sterilization with ethylene oxide at a concentration of 20% (v/v), at a temperature of 40° C. and a relative humidity of 50% for 3 hours), and then, in the container, Eye drop 1 obtained in the section of “1. Preparation of Eye Drop” was charged. […] The concentration of the present compound in the container was measured by high performance liquid chromatography before the initiation of storage and after 30-day storage. The content of the present compound was calculated taking the concentration of the present compound at the time of initiation of storage as a standard (100%). Incidentally, each value in Table 1 is expressed as an average of three cases.
Except that the sterilization treatment with ethylene oxide gas was altered into a sterilization treatment with gamma rays (32 kGy), the content of the present compound was calculated in the same manner as in Example 1.
Except that the sterilization treatment with ethylene oxide gas was altered into a sterilization treatment with electron rays (23 kGy), the content of the present compound was calculated in the same manner as in Example 1.
Except that a container with no sterilization treatment was used as the container, the content of the present compound was calculated in the same manner as in Example 1.
Except that Eye drop 1 was altered into Eye drop 2, the content of latanoprost was calculated in the same manner as in Example 1.
Except that Eye drop 1 was altered into Eye drop 2 and the sterilization treatment with ethylene oxide gas was altered into a sterilization treatment with gamma rays (32 kGy), the content of latanoprost was calculated in the same manner as in Example 1. […]

[1] = sterilized container compared with container with no sterilization treatment

content in the eye drop (container sterilized with gamma rays, electron rays or ethylene oxide gas) | content in the eye drop after a predetermined period of time [1] | content in the eye drop after a predetermined period of time (ethylene oxide gas sterilized container in comparison with gamma-ray or electron-ray sterilized container) | SMILES
did not decrease | comparable | – | CC(C)OC(=O)CCC/C=C\C[C@@H]1[C@@H](CC[C@@H](O)CCc2ccccc2)[C@H](O)C[C@@H]1O [latanoprost, 13,14-dihydro-17-phenyl-18,19,20-trinor-prostaglandin F2α isopropyl ester]
– | comparable | higher | CC(C)OC(=O)CCC/C=C\C[C@@H]1[C@@H](/C=C/C(F)(F)COc2ccccc2)[C@H](O)C[C@@H]1O [present compound, 16-phenoxy-15-deoxy-15,15-difluoro-17,18,19,20-tetranor-prostaglandin F2α isopropyl ester]
